Tests used:
Male SD-strain rats = assay: Effect on intracranial pressure (cerebrospinal fluid pressure in the cisterna magna) in urethane-anesthetized rats after oral administration; assay type: in vivo; conditions: 8 mg/kg orally
Protocol: Male SD-strain rats weighing […] (each group consisiting of 5 rats) were fasted for about 20 hours, and anesthetized with urethane. 1-(4-acetamido-2-methoxyphenoxy)-3-[4-(3-fluorophenyl)piperazino]-2-propanol (free base) was administered orally to the rats at a dose of 8 mg/kg. Intracranial pressure (i.e., cerebrospinal fluid pressure in the cisterna magna) was continuously monitored via a cannula inserted in the cisterna magna. The cannula was connected to a transducer, and recordings were made on graph paper. The effect of said test compound on the intracranial pressure was estimated in terms of the increase or decrease in intracranial pressure, which was calculated in accordance with the following formula: [formula]

[1] = Acute toxicity after oral administration; conditions: mouse, in vivo; oral administration to male mice, estimated a week after administration
Text: Unlike those of the hypertonic solutions of glycerol or mannitol, the therapeutic effect of the propanol derivative (I) of the present invention is not ascribable to the cerebral dehydrating effect. The propanol derivative (I) may be used for the treatment or prophylaxis of increased intracranial pressure during and after brain surgical operation. Moreover, the propanol derivative (I) may be used for improving impaired consciousness, nervous disturbance and subjective symptoms (e.g., headache, nausea, vomiting) which are attributed to the cerebral diseases such as those mentioned hereinbefore. Further, whereas it is known that cerebral edema induces an increase in intracranial pressure and increased intracranial pressure serves to cause a build-up of edema which in turn impairs cerebral circulation, the propanol derivative (I) can interrupt such vicious cycle of cerebral diseases because of its potent intracranial pressure-lowering effect and ameliorate the cerebral circulatory impairment. The toxicity of the propanol derivative (I) of the invention is low.

COc1cc(NC(C)=O)ccc1OCC(O)CN1CCN(c2cccc(F)c2)CC1 (stereo not shown) [1-(4-acetamido-2-methoxyphenoxy)-3-[4-(3-fluorophenyl)piperazino]-2-propanol]
Changes in intracranial pressure (%) (Male SD-strain rats; 20 minutes after administration, pre-dose pressure = 100 (70 ± 3.1 mm H2O), 5 rats): 85.4%
Changes in intracranial pressure (%) (Male SD-strain rats; 60 minutes after administration, pre-dose pressure = 100): 83.5%
Changes in intracranial pressure (%) (Male SD-strain rats; 120 minutes after administration, pre-dose pressure = 100): 77.7%
Changes in intracranial pressure (%) (Male SD-strain rats; 180 minutes after administration, pre-dose pressure = 100): 76.5%
Changes in intracranial pressure (%) (Male SD-strain rats; 240 minutes after administration, pre-dose pressure = 100): 75.6%
Changes in intracranial pressure (%) (Male SD-strain rats; 300 minutes after administration, pre-dose pressure = 100): 77.9%
LD50 at 168 h [1]: ~1500 mg/kg

Source: patent publication EP0067897A1, “A pharmaceutical composition for use in raised intracranial pressure” (Tanabe Seiyaku Co., Ltd., priority 1981, dated 1982)
